According to US10011814B2, “Salt formulations for the fermentation of marine microorganisms” (Triphase Research and Development I Corp., priority 2006, dated 2018):
Like-named read-outs stand apart in the source and are kept apart here.

Key:
[1] = tested on: Salinispora tropica CNB476; conditions: CNB476, day 6 production culture
Experimental: (§1) The first seed cultures (100 mL medium) in 500-mL Erlenmeyer flasks were incubated for 96 hours before inoculating 5 mL of the first seed culture into the second seed medium with the same composition as the first seed medium. The second seed cultures (100 mL medium in 500-mL Erlenmeyer flask) were incubated for 48 hours before inoculating 5 mL of the second seed culture into the production medium (100 mL in a 500-mL Erlenmeyer flask).
(§2) Per liter of DI H2O, the production medium consisted of: 10 g Starch, 4 g Hy Soy, 4 g Yeast Extract, 1 g CaCO3, 40 mg Fe2(SO4)3, and 100 mg KBr. The production medium was then supplemented with a chemically defined salt formulation consisted of the following common salt components along with different levels of NaCl:
(§3) The NaCl levels used were 0, 5, 10, 15, 20, 24 and 30 g/L. About […], sterile XAD-7 resin slurry was added to the production cultures in a final concentration of 20 g/L. The production culture was then further incubated and harvested at various time points to determine productivity.

[2] = tested on: Salinispora tropica NPS021184; conditions: NPS21184, day 6 production culture
Experimental: as §1, §2, §3

[3] = tested on: Salinispora tropica CNB440; conditions: CNB440, day 6 production culture
Experimental: as §1, §2, §3

Compound: [Cl-].[Na+] [NaCl]
- Packed Cell Volume ([1]; NaCl 0 g/L): 0%
- Packed Cell Volume ([1]; NaCl 5 g/L): 2%
- Packed Cell Volume ([1]; NaCl 10 g/L): 5%
- Packed Cell Volume ([1]; NaCl 15 g/L): 5%
- Packed Cell Volume ([1]; NaCl 20 g/L): 6%
- Packed Cell Volume ([1]; NaCl 24 g/L): 6%
- Packed Cell Volume ([1]; NaCl 30 g/L): 6%
- Packed Cell Volume ([2]; NaCl 0 g/L): 0%
- Packed Cell Volume ([2]; NaCl 5 g/L): 6%
- Packed Cell Volume ([2]; NaCl 10 g/L): 6%
- Packed Cell Volume ([2]; NaCl 15 g/L): 6%
- Packed Cell Volume ([2]; NaCl 20 g/L): 5%
- Packed Cell Volume ([2]; NaCl 24 g/L): 5%
- Packed Cell Volume ([2]; NaCl 30 g/L): 5%
- Packed Cell Volume ([3]; NaCl 0 g/L): 0%
- Packed Cell Volume ([3]; NaCl 5 g/L): 5%
- Packed Cell Volume ([3]; NaCl 10 g/L): 5%
- Packed Cell Volume ([3]; NaCl 15 g/L): 4%
- Packed Cell Volume ([3]; NaCl 20 g/L): 5%
- Packed Cell Volume ([3]; NaCl 24 g/L): 5%
- Packed Cell Volume ([3]; NaCl 30 g/L): 5%
